Source: US20260240812A1, “TREATMENT FOR AMYOTROPHIC LATERAL SCLEROSIS (ALS)” (Zydus Lifesciences Limited, priority 2023, published 2026)
Several values for one entry are separate records, joined by “and”; a condition that tells them apart may be missing. Identical values can stand only once.

Test system: patients with Amyotrophic Lateral Sclerosis (ALS)
Assay: Phase 2 placebo controlled, randomized, double blind 12-week study, ALSFRS-R total score
Assay type: in vivo, human
Excerpt: Efficacy, Safety, Tolerability, Pharmacokinetics and Pharmacodynamics of Formula (I) in Patients with Amyotrophic Lateral Sclerosis • Protocol Title: A phase 2, proof-of-concept, placebo controlled, randomized, double blind study of compound of formula (I) to evaluate the efficacy, safety, tolerability, pharmacokinetics and pharmacodynamics in patients with Amyotrophic Lateral Sclerosis (ALS). • Study design: A phase 2, proof-of-concept, placebo controlled, randomized, double blind, 12-week study of compound of formula (I) to evaluate the efficacy, safety, pharmacokinetics, and pharmacodynamics in patients with Amyotrophic Lateral Sclerosis (ALS). • Study population: Male or female patients aged between 18-80 years (both inclusive at screening) with diagnosis of Amyotrophic Lateral Sclerosis who meet eligibility criteria • Number of Patients: Approximately 24 patients (06 patients in each arm) are enrolled. • Duration of Patient Participation: 114±5 Days (Including 28 days of screening)
• To measure the efficacy of the treatment using the slope of progression with the revised Amyotrophic Lateral Sclerosis Functional Rating Scale (ALSFRS-R)
• Change from baseline in the ALSFRS-R total score [Time Frame: From baseline to Week 12] […]

`CN1CCC[C@]1(C)/C=C/S(=O)(=O)NC(=O)Nc1c2c(cc3c1CCC3)CCC2` [formula (I)] was tested, and the “Change from baseline in the ALSFRS-R total score” value (baseline to Week 12, one line per patient, arm not given) was −8 points and −1 points and 4 points and 0 points and 1 points and −3 points and the “ALSFRS-R score, result in words” value (over 12 weeks, ALS patients) was “stable and improved ALSFRS-R score in some patients”.
